Entries after “also recorded” stand apart in the source; their conditions may differ.
Columns and labels:
[1] = tested on: cultured hippocampal neurons; experiment: cells; type: cell-based, rat; details: pretreated 1 hr; 100 μM glutamate, 24 hr
[2] = tested on: neuronal [Ca^2+]i in cultured hippocampal neurons; experiment: measurement of [Ca^2+]i, fura-2 imaging; type: cell-based, rat; details: for reduction in peak [Ca^2+]i response to glutamate: 1 h
Text: Dissociated embryonic rat hippocampal cell cultures were established and maintained. All procedures conformed with the NIH Guide for the Care and Use of Laboratory Animals and were approved by the University of Kentucky Animal Care and Use Committee. Cultures were maintained on a polyethyleneimine-coated substrate in plastic 35-mm dishes or 96 wall plates (for cell survival studies) or glass-bottom 35-mm dishes (for [Ca^2+ ]i imaging studies). The cell density was ^~ 70-100 cells/mm^2. Cells were maintained in Eagle's minimum essential medium supplemented 10% with fetal bovine serum and containing 20 mM sodium pyruvate. […] Aβ25-35 (Bachem, lot ZJ744) and Aβ1-40 (Bachem, lot ZK600) were stored in the lyophilized form, and stocks were prepared immediately before use by dissolving the peptide at a concentration of 1 mM in sterile distilled water. […] Glutamate and colchicine (Sigma) were prepared as 200-500x stocks in saline. Cytochalasins D and E (Sigma) and calcium ionophore 4-bromo-A23187 (Calbiochem) were prepared as 500x stocks in dimethyl sulfoxide. Vitamin E (α-tocopherol; Sigma) was prepared as a 500x stock in ethanol. Nordihydroguaiaretic acid and FeSo4 were prepared as 500x stocks in sterile water.
Fluorescence ratio imaging of the Ca^2+ indicator dye fura-2 was used to quantify [Ca^2+ ]i in neuronal somata. Cells were incubated for 30-40 min in the presence of 2 μM acetoxymethyl ester form of the [Ca^2+ ]i indicator dye fura-2 and were then washed twice (2 ml/wash) with fresh medium and allowed to incubate at least 40 min before imaging. Immediately before imaging, the normal culture medium was replaced with Hanks' balanced saline solution (GIBCO) containing 10 mM HEPES buffer and 10 mM of glucose. Cells were imaged using a Zeiss Attofluor system with a oil objective or Quantex system with a 40x oil objective. The ratio of the fluorescence emission using two different excitation wavelengths (334 and 380 nm) was used to determine [Ca^2+ ]i. The system was calibrated using solutions containing either no Ca^2+ or a saturating level of Ca^2+ (1 mM) according to the following formula: [Ca^2+ ]i =KD [(R-Rmin) / (Rmax -R)] (F0 /FS). Values represent the average [Ca^2+ ]i in the neuronal cell body. Experimental treatments were added to the bathing medium by dilution from 100-500x stocks.
(A) Cultures were pretreated for 1 hr with 100 nM cytochalasin D and then [Ca^2+ ]i in neurons was monitored prior to and following exposure to 50 μM glutamate. The records represent the mean [Ca^2+ ]i in 8-12 neurons. Similar results were obtained in 4 separate experiments.
(B) Aβ-induced potentiation of [Ca^2+ ]i response to glutamate is abrogated by cytochalasin D. Cultures were left untreated (Control) or were exposed to 20 μM Aβ25-35 for 6 hr or cytochalasin D plus Aβ25-35 for 6 hr. The [Ca^2+ ]i was then monitored prior to following exposure to 50 μM glutamate. Values represent the means of 8-14 neurons. Similar results were obtained in 3 separate experiments.
(C) Cultures were pretreated for 3 hr with 50 μM Aβ alone or in combination with 100 nM cytochalasin D. The [Ca^2+ ]i in neurons was then monitored prior to and following exposure to 50 mM KCl. Values represent the mean of 14-23 neurons. Similar results were obtained in a separate experiment.
(D) Cultures were pretreated for 1 h with 100 nM cytochalasin D. The [Ca^2+ ]i in neurons was measured immediately prior to, and at 5 min following, exposure to the indicated concentrations of glutamate. Values represent the means and SEM of determinations made in 17-26 neurons. *P<0.05 (10 μM glutamate), P<0.02 (50 μM glutamate), P<0.01 (100 μAM glutamate) compared to corresponding control values.
FIG. 9. Cultures were pretreated for 3 h with vehicle (control) or 10 μM jasplakinolide. The [Ca^2+ ]i was monitored prior to and following exposure to 50 μM glutamate. Values represent the mean of determinations made in 10-12 neurons. Similar results were obtained in two additional experiments.
FIG. 10. […]

[3] = tested on: hippocampal region CA3 neurons; experiment: kainate lesion paradigm, CA3 neurons; type: in vivo, rat (Sprague-Dawley); details: for neurons damaged by kainate: intraventricular
Method: A kainate lesion paradigm was employed in adult rats to determine whether cytochalasin D was also excitoprotective. Twenty-four adult male Sprague-Dawley rats (250-300 g) were divided into the indicated experimental groups (4-5 rats/group). Kainate (0.5 µg/[…]) was injected stereotaxically into region CA1 of the right hippocampus of anesthetized rats. Cytochalasin D (the indicated concentration in 1 μl of saline-1% DMSO) or vehicle was infused into the right lateral ventricle during a 5-10 min period immediately following kainate injection. Rats were killed 48 hr later and perfused transcardially with 4% paraformaldehyde. Brain sections (30 μm) were stained with cresyl violet and stained neurons in three adjacent 40X microscope fields of hippocampal region CA3 were counted (5 sections/rat) . The neuronal counts were performed in sections removed approximately 200-400 μm from the injection site. This method results in highly reproducible, 75-99%, neuronal loss in the CA3 region in over 99% of the rats injected with kainate (calculations based on 302 rats receiving intra-hippocampal kainate). […] Approximately 80% of the neurons were killed by kainate in control animals receiving an intracerebroventricular infusion of saline immediately following kainate administration.
Cresyl violet-stained coronal sections from brains of rats administered kainate alone (left) of kainate plus cytochalasin D (CyD; right). […] Lower micrographs are high magnification of a region of CA3 from the sections shown in the upper panels.
FIG. 3. Counts of viable neurons were made in region CA3 of Sham-operated rats, and rats infused intraventricularly with vehicle or increasing concentration of cytochalasin D […] unilateral kainate injection into region CA1 of the hippocampus. Neuronal survival in the kainate injected hippocampus is expressed as a percentage of neurons in the contralateral hippocampus. Values represent the mean and SEM (4 or 5 rats/group). *p<0.01 compared to value for sham rats. **p<0.01 compared to value for vehicle-infused rats. (ANOVA with Scheffe's post-hoc test).

Compound | effect on glutamate neurotoxicity [1] | effect on [Ca^2+]i response to glutamate ([2]; 100 nM) | rest [Ca^2+]i, alone ([2]; alone, data not shown) | effect on [Ca^2+]i response to Aβ ([2]; data not shown) | neurons damaged by kainate ([3]; 0.1 μg) [%] | neurons damaged by kainate ([3]; 1.00 μg) [%] | reduction in neuronal injury to CA3 neurons after kainate ([3]; intraventricular infusion, dose related, 48 hr) | effect on [Ca^2+]i response to calcium ionophore A23187 ([2]; 100 nM pretreatment, 500 nM A23187) | effect on K^+-induced elevation of [Ca^2+]i ([2]; 100 nM pretreatment, 50 mM KCl) | reduction in peak [Ca^2+]i response to glutamate ([2]; 100 nM, 10 μM glutamate, P<0.05) | reduction in peak [Ca^2+]i response to glutamate ([2]; 100 nM, 50 μM glutamate, P<0.02) | reduction in peak [Ca^2+]i response to glutamate ([2]; 100 nM, 100 μM glutamate, P<0.01) [nM] | rest [Ca^2+]i after Aβ exposure ([2]; 100 nM, 1 h pretreatment, 50 μM Aβ for 3 and 6 h) | reduction of [Ca^2+]i response to glutamate ([2]; 100 nM, 1 hr pretreatment, 50 μM glutamate) | effect on Aβ-induced potentiation of [Ca^2+]i response to glutamate ([2]; Aβ pretreatment, 50 μM glutamate) | [Ca^2+]i responses to glutamate, Aβ, and membrane depolarization ([2]; pretreated)
COc1cc2c(c(OC)c1OC)-c1ccc(OC)c(=O)cc1[C@@H](NC(C)=O)CC2 [Colchicine, colchicine, reference compound] | ineffective | did not attenuate | elevation of rest [Ca^2+ ]i | did not attenuate | – | – | – | – | – | – | – | – | – | – | – | –
C=C1[C@@H](C)[C@H]2[C@H](Cc3ccccc3)NC(=O)[C@]23[C@H](OC(C)=O)/C=C/[C@@](C)(O)C(=O)[C@@H](C)C/C=C/[C@H]3[C@@H]1O [Cytochalasin D, cytochalasin D] | significantly attenuated | – | – | – | 20 | 20 | highly significant reduction in neuronal injury to CA3 neurons; also recorded: marked reduction in the damage | did not attenuate; also recorded: does not affect | suppressed | approximately 60 nM | approximately 170 nM | ~460 | not significantly elevated | approximately 30% | completely blocked; also recorded: suppressed; also recorded: abrogated | attenuated

Reference: patent US5830910A (priority 1995, dated 1998)
